Experimental data published in patent US20060205714A1, “Method of synthesis and isolation of solid N-desmethylclozapine and crystalline forms thereof” (priority 2004, published 2006).
Blank lines part the entries; values can stand above or below the molecule they belong to.

Columns and labels:
[1] = Storage stability of the crystal forms (humidity, temperature, dry nitrogen); format: physicochemical; details: for conversion to hydrated or other crystalline forms on storage / stability under humid atmosphere / high relative humidity: stored at high, such as 75% or 90%, relative humidity in air at elevated temperature
schizophrenics = details: cited from earlier work
[2] = test system: Alzheimer's Disease patients; details: cited from earlier work
[3] = Water solubility of crystal forms; format: physicochemical
[4] = test system: psychosis and other neuropsychiatric disorders; details: in vivo; cited from earlier work
Solubility in solvents = format: physicochemical

stability of mixtures of crystal forms A and B [1]: very stable
Compound: Clc1ccc2c(c1)N=C(N1CCNCC1)c1ccccc1N2 [8-chloro-11-(1-piperazinyl)-5H-dibenzo[b,e]-[1,4]diazepin]

Compound: CCCCCCOc1nsnc1C1=CCCN(C)C1 [Xanomeline]
adverse motoric effects (schizophrenics; initial clinical studies in schizophrenics): did not induce adverse motoric effects
efficacy in treating schizophrenia (schizophrenics; schizophrenia): efficacious in treating schizophrenia
efficacy against positive and negative symptoms (schizophrenics; schizophrenics): efficacy against both positive and negative symptoms
efficacy in controlling psychosis and related behavioral disturbances [2]: efficacy in controlling psychosis and related behavioral disturbances

stability under humid atmosphere / high relative humidity [1]: very stable under humid atmosphere
Compound: Clc1ccc2c(c1)N=C(N1CCNCC1)c1ccccc1N2 [Form A, 8-chloro-11-(1-piperazinyl)-5H-dibenzo[b,e]-[1,4]diazepin]
physical and chemical stability ([1]; form obtained at ambient temperatures): excellent physical and chemical stability properties
conversion to hydrated or other crystalline forms on storage [1]: does not convert to the hydrated forms or other crystalline forms
water solubility [3]: better water solubility than crystal form B

Compound: Clc1ccc2c(c1)N=C(N1CCNCC1)c1ccccc1N2 [NDMC, 8-chloro-11-(1-piperazinyl)-5H-dibenzo[b,e]-[1,4]diazepin]
effectiveness in the treatment of psychosis and other neuropsychiatric disorders [4]: effective in the treatment of psychosis and other neuropsychiatric disorders

solubility in solvents (Solubility in solvents): satisfying solubility in solvents
time to formation of Form B on contact with humidity ([1]; contacted with humidity): within hours
stability under exclusion of humidity ([1]; exclusion of humidity, ambient temperature): stable
Compound: Clc1ccc2c(c1)N=C(N1CCNCC1)c1ccccc1N2 [Form D, 8-chloro-11-(1-piperazinyl)-5H-dibenzo[b,e]-[1,4]diazepin]

stability at elevated temperatures or under dry nitrogen ([1]; elevated temperatures or dry nitrogen, loses its water and is transformed into Form D): unstable
stability under normal conditions ([1]; normal conditions, ambient temperatures): very stable
stability under humid atmosphere / high relative humidity [1]: very stable hydrate
water solubility [3]: specially water soluble
Compound: Clc1ccc2c(c1)N=C(N1CCNCC1)c1ccccc1N2 [Form B, 8-chloro-11-(1-piperazinyl)-5H-dibenzo[b,e]-[1,4]diazepin]
conversion to hydrated or other crystalline forms on storage [1]: No conversion to other crystalline forms or hydrates was observed
